Each structure is given as a SMILES string.

T1 sequence (P29274 whole entry): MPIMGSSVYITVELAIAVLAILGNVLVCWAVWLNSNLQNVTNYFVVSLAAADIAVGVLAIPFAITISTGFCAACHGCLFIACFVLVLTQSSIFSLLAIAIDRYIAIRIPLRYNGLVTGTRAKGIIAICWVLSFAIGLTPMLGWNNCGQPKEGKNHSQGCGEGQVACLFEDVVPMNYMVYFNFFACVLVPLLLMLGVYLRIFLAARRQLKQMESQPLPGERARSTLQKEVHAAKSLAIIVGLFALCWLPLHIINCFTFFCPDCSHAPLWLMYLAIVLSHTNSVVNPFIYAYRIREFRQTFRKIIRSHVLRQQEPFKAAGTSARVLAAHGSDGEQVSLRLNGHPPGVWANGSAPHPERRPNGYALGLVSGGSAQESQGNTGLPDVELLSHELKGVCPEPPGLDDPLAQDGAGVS

The test has as its target T1, human A2a receptor (Homo sapiens, UniProt P29274).
T1 construct: purchased Perkin-Elmer RBHA2AM400UA; host or cells: HEK293 cell membranes
Nature of the test: A2a receptor competition binding assay using Scintillation Proximity technology. The conditions noted are these: membranes from HEK293 cells expressing human A2a receptor; 0.5 nM tritiated radioligand; SPA beads; 1 h room temperature. As for the experimental part:
Binding affinities of compounds of the invention for the human A2a receptor were determined in a competition binding assay using Scintillation Proximity technology. Thus, 0.3 μg of membranes from HEK293 cells expressing the human A2a receptor were incubated with a compound of the invention at concentrations ranging from 3000 nM to 0.15 nM in a reaction mixture containing also 0.5 nM of a tritiated form of 5-amino-7-[2-phenethyl]-2-(furan-2-yl)-7H-pyrazolo[4,3-e][1,2,4]triazolo[1,5-c]pyrimidine (the tritiated compound) and 100 μg of wheat germ agglutin-coated yttrium silicate SPA beads for one hour at room temperature with agitation. The beads were then allowed to settle to the bottom of the wells for 1 hr, after which the membrane-associated radioactivity was determined by scintillation counting in a TopCount microplate reader. Ki values were determined using the Cheng-Prusoff equation.
Summary of Materials and Methods Used in A2a Activity Determination:
HEK293 cells expressing the human, rat, dog or monkey adenosine 2a receptor (Purchased from Perkin-Elmer # RBHA2AM400UA).
The Tritiated compound was prepared in-house by MRL Radiochemistry according to published methods.
Wheat germ agglutinin-coated yttrium silicate SPA beads (GE Healthcare#RPNQ0023). Dilute to 25 mg/ml in assay buffer.
Assay Buffer was prepared in house: Dulbecco's calcium and magnesium free phosphate buffered saline+10 mM MgCl2
Adenosine deaminase from calf intestine, 10 mg/2 ml (Roche) 10 102 105 001).
A2a antagonist standard (9-chloro-1-(2-furanyl)-[1,2,4]triazolo1,5-c]quinazolin-5-amine from Tocris Bioscience)
Make eight 1:3 serial dilutions in 100% DMSO from a 3 mM compound stock
Transfer 50 nl of compound into a 384-well OptiPlate (Perkin Elmer).
Typically, final concentrations of compound used in the assay ranged from 3000 nM to 0.152 nM.
Dilute a solution of the Tritiated compound to 1.25 nM in assay buffer. This is a 2.5× solution. The final concentration in the assay is 0.5 nM. Calculate the concentration by counting two 5 μl aliquots.
Use 0.25 ug of membrane/well. Dilute membranes to 9.7 μg/ml in assay buffer. Treat with 20 ug/ml adenosine deaminase (ADA) for 15 minutes at room temperature to degrade endogenous adenosine.
Use 100 μg/well wheat germ agglutinin-coated yttrium silicate SPA beads.
Mix ADA-treated membranes and SPA beads together for 30 min prior to assay.
To the Perkin-Elmer Optiplate-384 containing the compound titration add 20 μl of 2.5× solution of the Tritiated compound and 30 μl of the membrane-bead mixture. Incubate for one hour at room temperature with agitation.
Include total binding (assay buffer+1% DMSO) and non-specific binding (CGS15943, 1 μM) wells.
Allow the beads to settle for one hour.
A curve fitting program (i.e., Prism, Activity Base, Chemcart) is used to determine the EC50. The Ki value is calculated using the Cheng-Prusoff equation: K i=EC50/(1+(radioligand concentration/Kd)).
(In general: In a scintillation proximity assay essentially only radioactivity close to the scintillant gives light.)
`COc1cccc2c1nc(N)n1nc(C[C@H](N3Cc4cccnc4C3)C(F)(F)F)nc21` [Ex-109]: a half-maximal effect (EC50) was put at 12.2 nM.
The same measure for `Nc1nc2c(OCF)cccc2c2nc(CCN3Cc4cccnc4C3)nn12` [Ex-79, 2-(2-(5H-pyrrolo[3,4-b]pyridin-6(7H)-yl)ethyl)-7-(fluoromethoxy)-[1,2,4]triazolo[1,5-c]quinazolin-5-amine]: 22.3 nM; for `COc1cccc2c1nc(N)n1nc(C[C@H](C)N3Cc4cccnc4C3)nc21` [Ex-106]: 19.5 nM; for `COc1cccc2c1nc(N)n1nc(CCN3CCc4c(cnn4C4CC4)C3)nc21` [Ex-7, 2-(2-(1-cyclopropyl-6,7-dihydro-1H-pyrazolo[4,3-c]pyridin-5(4H)-yl)ethyl)-7-methoxy-[1,2,4]triazolo[1,5-c]iquinazolin-5-amine]: 1.4 nM.
Regarding `COc1cccc2c1nc(N)n1nc(CCN3CCc4oncc4C3)nc21` [Ex-35, 2-(2-(6,7-dihydroisoxazolo[4,5-c]pyridin-5(4H)-yl)ethyl)-7-methoxy-[1,2,4]triazolo[1,5-c]quinazolin-5-amine], the EC50 (usually the concentration needed to bring the measured effect to its halfway point) was found to be 2.3 nM.
The same measure for `COc1cccc2c1nc(N)n1nc(CCN3CCn4nccc43)nc21` [Ex-33, 2-(2-(2,3-dihydro-1H-imidazo[1,2-b]pyrazol-1-yl)ethyl)-7-methoxy-[1,2,4]triazolo[1,5-c]quinazolin-5-amine]: 4.2 nM; for `Nc1nc2c(Br)cccc2c2nc(CN3Cc4cccnc4C3)nn12` [Ex-195]: 16.6 nM; for `COc1cccc2c1nc(N)n1nc(CN3Cc4ccc(Cl)nc4C3)nc21` [Ex-137]: 16.1 nM.
In the case of `COc1cccc2c1nc(N)n1nc(CN3CCc4cc(C#N)ccc4C3)nc21` [Ex-122, 2-((5-amino-7-methoxy-[1,2,4]triazolo[1,5-c]quinazolin-2-yl)methyl)-1,2,3,4-tetrahydroisoquinoline-6-carbonitrile], the EC50 came out at 6 nM.
The compound `COc1cccc2c1nc(N)n1nc(CCN3CCc4scnc4C3)nc21` [Ex-57, 2-(2-(6,7-dihydrothiazolo[4,5-c]pyridin-5(4H)-yl)ethyl)-7-methoxy-[1,2,4]triazolo[1,5-c]quinazolin-5-amine] had an EC50 of 1.7 nM.
With `COc1cccc2c1nc(N)n1nc(CN3CCc4cncnc4C3)nc21` [Ex-151, 2-((5,6-dihydropyrido[3,4-d]pyrimidin-7(8H)-yl)methyl)-7-methoxy-[1,2,4]triazolo[1,5-c]quinazolin-5-amine] the figure was 48.2 nM; with `COc1cccc2c1nc(N)n1nc(CN3CCc4cc(Br)cnc43)nc21` [Ex-155, 2-((5-bromo-2,3-dihydro-1H-pyrrolo[2,3-b]pyridin-1-yl)methyl)-7-methoxy-[1,2,4]triazolo[1,5-c]quinazolin-5-amine], 2.2 nM; with `COc1cccc2c1nc(N)n1nc(CN3CCc4ccc(-c5ccc(F)c(F)c5)cc4C3)nc21` [Ex-168], 4.3 nM.
The same measure for `COc1cccc2c1nc(N)n1nc(CN3Cc4nc(C(C)C)sc4C3)nc21` [Ex-149, 2-((2-isopropyl-4H-pyrrolo[3,4-d]thiazol-5(6H)-yl)methyl)-7-methoxy-[1,2,4]triazolo[1,5-c]quinazolin-5-amine]: 17.5 nM; for `COc1cccc2c1nc(N)n1nc(CN3CCc4ccc(-c5ccccc5C(F)(F)F)cc4C3)nc21` [Ex-185, 7-methoxy-2-((7-(2-(trifluoromethyl)phenyl)-3,4-dihydroisoquinolin-2(1H)-yl)methyl)-[1,2,4]triazolo[1,5-c]quinazolin-5-amine]: 11.2 nM.
The same measure for `COc1cccc2c1nc(N)n1nc(CCN3CCc4noc(C(F)(F)F)c4C3)nc21` [Ex-9, 7-methoxy-2-(2-(3-(trifluoromethyl)-6,7-dihydroisoxazolo[4,3-c]pyridin-5(4H)-yl)ethyl)-[1,2,4]triazolo[1,5-c]quinazolin-5-amine]: 2.1 nM; for `CCc1ncc2n1CCN(CCc1nc3c4cccc(OC)c4nc(N)n3n1)C2` [Ex-13, 2-(2-(3-ethyl-5,6-dihydroimidazo[1,5-a]pyrazin-7(8H)-yl)ethyl)-7-methoxy-[1,2,4]triazolo[1,5-c]quinazolin-5-amine]: 2.2 nM.
As to `COc1cccc2c1nc(N)n1nc(CN3CCc4ccc(-c5cnc(N)nc5C(F)(F)F)cc4C3)nc21` [Ex-186, 2-((7-(2-amino-4-(trifluoromethyl)pyrimidin-5-yl)-3,4-dihydroisoquinolin-2(1H)-yl)methyl)-7-methoxy-[1,2,4]triazolo[1,5-c]-quinazolin-5-amine], the response was half-maximal at 3.9 nM (EC50).
In the case of `COc1cccc2c1nc(N)n1nc(CCCN3Cc4ccc(C(F)(F)F)cc4C3)nc21` [Ex-230, 7-methoxy-2-(3-(5-(trifluoromethyl)isoindolin-2-yl)propyl)-[1,2,4]triazolo[1,5-c]quinazolin-5-amine], the midpoint of the response, the EC50, lay at 5.7 nM.
With `COc1cccc2c1nc(N)n1nc(CN3CCc4ccc(-c5cn(C)nc5C(F)(F)F)cc4C3)nc21` [Ex-184, 7-methoxy-2-((7-(1-methyl-3-(trifluoromethyl)-1H-pyrazol-4-yl)-3,4-dihydroisoquinolin-2(1H)-yl)methyl)-[1,2,4]triazolo[1,5-c]quinazolin-5-amine], the EC50 stood at 2.9 nM.
The same measure for `COc1cccc2c1nc(N)n1nc(CCN3CCc4c(C(F)(F)F)n[nH]c4C3)nc21` [Ex-42, 7-methoxy-2-(2-(3-(trifluoromethyl)-4,5-dihydro-1H-pyrazolo[3,4-c]pyridin-6(7H)-yl)ethyl)-[1,2,4]triazolo[1,5-c]quinazolin-5-amine]: 1.4 nM; for `COc1cccc2c1nc(N)n1nc(C[C@@H](C)N3CCn4nc(C)cc4C3)nc21` [Ex-221, (R)-7-methoxy-2-(2-(2-methyl-6,7-dihydropyrazolo[1,5-a]pyrazin-5(4H)-yl)propyl)-[1,2,4]triazolo[1,5-c]quinazolin-5-amine]: 3.9 nM; for `COc1cccc2c1nc(N)n1nc(CN3CCc4ccccc4C3)nc21` [Ex-121]: 0.8 nM.
`COc1cccc2c1nc(N)n1nc(CCN3CCc4c(c(C(F)(F)F)nn4C)C3)nc21` [Ex-32, 7-methoxy-2-(2-(1-methyl-3-(trifluoromethyl)-677-dihydro-1H-pyrazolo[4,3-c]pyridin-5(4H)-yl)ethyl)-[1,2,4]triazolo[1,5-c]quinazolin-5-amine] yielded an EC50 of 1.4 nM. Compared with the last compound, the EC50 is about 1.7-fold higher.
The same measure for `COc1cccc2c1nc(N)n1nc(C[C@H](C)N3CCc4nc(C)oc4C3)nc21` [Ex-212, (S)-7-methoxy-2-(2-(2-methyl-6,7-dihydrooxazolo[5,4-c]pyridin-5(4H)-yl)propyl)-[1,2,4]triazolo[1,5-c]quinazolin-5-amine]: 6.1 nM; for `CC[C@@H](Cc1nc2c3cccc(OC)c3nc(N)n2n1)N1Cc2cccnc2C1` [Ex-113]: 22.8 nM.
With `COc1cccc2c1nc(N)n1nc(CCN3CCc4c(Br)ccnc4C3)nc21` [Ex-6, 2-(2-(4-bromo-5,6-dihydro-1,7-naplithyridin-7(8H)-yl)ethyl)-7-methoxy-[1,2,4]triazolo[1,5-c]quinazolin-5-amine] the figure was 5.9 nM; with `COc1cccc2c1nc(N)n1nc(CN3Cc4ccc(C(F)(F)F)cc4C3)nc21` [Ex-127, 7-methoxy-2-((2,3,4,5-(trifluoromethyl)isoindolin-2-yl)methyl)-[1,2,4]triazolo[1,5-c]quinazolin-5-amine], 8.5 nM.

The values are drawn from patent publication US10011615B2, “Heterobicyclo-substituted [1,2,4]triazolo[1,5-c]quinazolin-5-amine compounds with A2A anatagonist properties” (Merck Sharp & Dohme Corp., priority 2012, dated 2018).
